Reference: patent US5026703A, “Peptide oxytocin antagonists” (priority 1990, dated 1991)
pIC50: −log10 of the molar value. Structures can show the parent of a compound that is named as a salt. Where two headings read alike, the source gives them in different places. *1 amine or outer side, *2 acyl side, *3 side chain or, on linkers, in order; H or OH if unused. Where a SMILES comes first, the peptide text is derived from it. [ ]: non-standard residue; d: D form. X12 = C=CCSC(=N[C@H](C(=O)[*:2])[C@@H](C)CC)[C@@H](Cc1ccccc1)N[*:1]; X14 = CCOC(=O)C(C(=O)OCC)C1C=NN([*:1])[C@H](C(=O)[*:2])C1; X11 = CC(C)(C)OC(=O)CSC1=NN([*:1])[C@H](C(=O)[*:2])CC1; X2 = O=C([C@@H]1[C@@H](O)[C@@H](O)C=NN1[*:1])[*:2]; X8 = O=C([C@@H]1CC(N2CCCC2)C=NN1[*:1])[*:2]; X10 = O=C1CC[C@@H](C(=O)[*:2])N([*:1])N1; Piz(1,6-dehydro) = O=C(O)[C@@H]1CCC=NN1; X7 = CSC1=NN([*:1])[C@H](C(=O)[*:2])CC1; dPiz(1,6-dehydro) = O=C(O)[C@H]1CCC=NN1; X16 = CN1CCC[C@@H](C(=O)[*:2])N1[*:1]; X15 = CN1CCC[C@H](C(=O)[*:2])N1[*:1]; X9 = O=C([C@@H]1C=CC=NN1[*:1])[*:2]; dNMeCha = CN[C@H](CC1CCCCC1)C(=O)O; X5 = O=C([C@@H]1CCCNN1[*:1])[*:2]; X1 = O=C([C@H]1CCCNN1[*:1])[*:2]; dNMeF = CN[C@H](Cc1ccccc1)C(=O)O; dCha = N[C@H](CC1CCCCC1)C(=O)O

Assays:
uterine OT receptors = target: T1, uterine OT receptors (Rattus norvegicus, UniProt P70536); assay: [3H]OT radioligand binding to uterine OT receptors, crude membrane preparation; conditions: for IC50: uteri of DES-treated rats, 1 nM [3H]OT, 60 min, 22° C., inhibits specific binding by 50%, read-out: Receptor Binding Results IC50 (nM) [3H]OT
T1 construct: from tissue; host or cells: uterus of DES-treated rats, crude membranes
T1 sequence (P70536 1-388): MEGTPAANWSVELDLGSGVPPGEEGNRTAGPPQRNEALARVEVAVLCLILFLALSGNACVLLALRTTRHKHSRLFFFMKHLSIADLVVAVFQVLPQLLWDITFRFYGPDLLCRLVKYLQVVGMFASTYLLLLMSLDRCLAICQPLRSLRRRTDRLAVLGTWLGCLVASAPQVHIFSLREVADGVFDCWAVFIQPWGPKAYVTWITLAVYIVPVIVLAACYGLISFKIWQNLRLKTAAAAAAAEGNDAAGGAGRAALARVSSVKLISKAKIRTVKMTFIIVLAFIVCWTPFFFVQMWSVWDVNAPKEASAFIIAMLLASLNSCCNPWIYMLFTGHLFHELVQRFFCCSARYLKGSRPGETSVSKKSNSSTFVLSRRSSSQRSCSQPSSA
Procedure: The high affinity binding of [^3 H]OT ([tyrosyl, 3,5-[^3 H]OT; 30-60 Ci/mmol; New England Nuclear Boston, Mass.) to uterine OT receptors was based on an assay* using a crude membrane preparation of uteri taken from diethylstilbestrol dipropionate (DES)-treated (0.3 mg/kg, ip; 18-24) rats. Competition studies were conducted at equilibrium (60 min; 22° C.) using 1 nM [^3 H]OT in the following assay buffer: 50 mM Tris-HCl, 5 mM MgCl2, and 0.1% BSA, pH 7.4. Nonspecific binding (10% of the total binding) was determined using 1 μM unlabeled OT and the binding reaction was terminated by filtration through glass fiber filters using a cell harvester (model 7019, Skatron, Inc., Sterling, Va.).
*Fuchs, A-R; Fuchs, F; Soloff, MS. 1985 J. Clin. Endocrinol. Metab. 60:37.

AVP-V1 sites = AVP-V1 sites (Rattus norvegicus, UniProt P30560); assay: [3H]AVP radioligand binding to male rat liver crude membrane preparation (AVP-V1 sites); conditions: for IC50: male rat liver membranes, 1 nM [3H]AVP, 30 min at 30° C., read-out: Receptor Binding Results IC50 (nM) [^3 H]-AVP-V1
Procedure: (§1) Nonspecific binding (5-10% of the total binding) was determined using 10 μM unlabeled AVP, and the binding reaction was terminated by filtration as described above for the [^3 H]OT binding assay.
(§2) +Butlen, D; Guillon, G; Rajerison, RM; Jard, S; Sawyer, WH; Manning, M. 1978 Mol Pharmacol 14:1006.

AVP-V2 sites = AVP-V2 sites (Rattus norvegicus, UniProt Q00788); assay: [3H]AVP radioligand binding to rat kidney medulla crude membrane preparation (AVP-V2 sites); conditions: rat kidney medulla membranes; 2 nM [3H]AVP; 30 min at 30° C.; read-out: Receptor Binding Results IC50 (nM) [^3 H]-AVP-V2
Procedure: as §1, §2

Chain of AVP-V2 sites (Q00788 whole entry): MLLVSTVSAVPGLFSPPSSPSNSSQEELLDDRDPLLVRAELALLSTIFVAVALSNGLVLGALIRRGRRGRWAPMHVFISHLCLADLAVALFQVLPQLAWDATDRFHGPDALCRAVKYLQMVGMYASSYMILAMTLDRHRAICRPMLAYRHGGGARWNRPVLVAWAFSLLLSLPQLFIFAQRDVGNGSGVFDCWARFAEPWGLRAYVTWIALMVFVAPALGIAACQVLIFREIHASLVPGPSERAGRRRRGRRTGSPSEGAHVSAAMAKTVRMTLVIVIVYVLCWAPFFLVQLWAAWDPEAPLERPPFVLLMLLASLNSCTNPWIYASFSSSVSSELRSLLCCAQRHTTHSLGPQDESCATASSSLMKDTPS
Chain of AVP-V1 sites (P30560 whole entry): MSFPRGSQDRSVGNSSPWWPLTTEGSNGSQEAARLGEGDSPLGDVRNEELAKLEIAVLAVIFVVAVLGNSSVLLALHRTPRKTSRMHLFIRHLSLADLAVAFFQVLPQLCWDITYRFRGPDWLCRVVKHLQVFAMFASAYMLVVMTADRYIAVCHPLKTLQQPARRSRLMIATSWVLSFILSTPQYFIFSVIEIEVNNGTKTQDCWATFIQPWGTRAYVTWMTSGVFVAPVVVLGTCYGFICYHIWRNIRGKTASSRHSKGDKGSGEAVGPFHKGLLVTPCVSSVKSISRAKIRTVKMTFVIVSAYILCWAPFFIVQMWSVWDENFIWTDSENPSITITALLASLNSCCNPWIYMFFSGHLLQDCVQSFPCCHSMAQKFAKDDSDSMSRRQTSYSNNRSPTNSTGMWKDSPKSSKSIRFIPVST

Structure (SMILES) | IC50 (uterine OT receptors) | IC50 (AVP-V1 sites) | IC50 (AVP-V2 sites) | pIC50 (uterine OT receptors) | pIC50 (AVP-V1 sites)
CC[C@H](C)[C@@H]1NC(=O)[C@@H](Cc2ccccc2)NC(=O)[C@@H]2CCCN2C(=O)[C@@H](Cc2ccccc2)N(C)C(=O)[C@@H]2C=CC=NN2C(=O)[C@H]2CCC=NN2C1=O [Example 8, cyclo-[D-Phenylalanyl-L-isoleucyl-D-2,3,4,5-tetrahydro-3-pyridazinecarbonyl-L-2,3-dihydro-3-pyridazine-carbonyl-N-methyl-D-phenylalanyl-L-prolyl]] (cyclo(I[dPiz(1,6-dehydro)][X9][dNMeF]P[dF])) | 20 nM | 1410 nM | 1350 nM |  | 
CC[C@H](C)[C@@H]1NC(=O)[C@@H](Cc2ccccc2)NC(=O)[C@@H]2CCCN2C(=O)[C@@H](Cc2ccccc2)N(C)C(=O)[C@@H]2CCC(=O)NN2C(=O)[C@H]2CCC=NN2C1=O [Example 3, cyclo-[D-Phenylalanyl-L-isoleucyl-D-2,3,4,5-tetrahydro-3-pyridazinecarbonyl-L-hexahydro-6-oxo-3-pyridazinecarbonyl-N-methyl-D-phenylalanyl-L-prolyl]] (cyclo(I[dPiz(1,6-dehydro)][X10][dNMeF]P[dF])) | 20 nM | 4700 nM | 17000 nM |  | 
CC[C@H](C)[C@@H]1NC(=O)[C@@H](CC2CCCCC2)NC(=O)[C@@H]2CCCN2C(=O)[C@@H](CC2CCCCC2)N(C)C(=O)[C@@H]2CCCNN2C(=O)[C@H]2CCCNN2C1=O [Example 1, cyclo-[D-3-Cyclohexylalanyl-L-isoleucyl-D-hexahydro-3-pyridazinecarbonyl-L-hexahydro-3-pyridazinecarbonyl-3-cyclohexyl-N-methyl-D-alanyl-L-prolyl]] (cyclo(I[X1][X5][dNMeCha]P[dCha])) | 725 nM | 2400 nM | 14800 nM |  | 
CC[C@H](C)[C@@H]1NC(=O)[C@@H](Cc2ccccc2)NC(=O)[C@@H]2CCCN2C(=O)[C@@H](Cc2ccccc2)N(C)C(=O)[C@@H]2CCC(SC)=NN2C(=O)[C@H]2CCC=NN2C1=O [Example 5, cyclo-[D-Phenylalanyl-L-isoleucyl-D-2,3,4,5-tetrahydro-3-pyidazinecarbonyl-L-2,3,4,5-tetrahydro-6-methylthio-3-pyridazinecarbonyl-N-methyl-D-phenylalanyl-L-prolyl]] (cyclo(I[dPiz(1,6-dehydro)][X7][dNMeF]P[dF])) | 27 nM | 820 nM | 1020 nM |  | 
CC[C@H](C)[C@@H]1NC(=O)[C@@H](CC2CCCCC2)NC(=O)[C@@H]2CCCN2C(=O)[C@@H](CC2CCCCC2)N(C)C(=O)[C@@H]2CCC=NN2C(=O)[C@H]2CCC=NN2C1=O [Example 2, cyclo-[D-3-Cyclohexylalanyl-L-isoleucyl-D-2,3,4,5-tetrahydro-3-pyidazinecarbonyl-L-2,3,4,5-tetrahydro-3-pyridazinecarbonyl-3-cyclohexyl-N-methyl-D-alanyl-L-prolyl]] (cyclo(I[dPiz(1,6-dehydro)][Piz(1,6-dehydro)][dNMeCha]P[dCha])) | 94 nM |  |  |  | 
CC[C@H](C)[C@@H]1NC(=O)[C@@H](Cc2ccccc2)NC(=O)[C@@H]2CCCN2C(=O)[C@@H](Cc2ccccc2)N(C)C(=O)[C@@H]2CCC(=O)NN2C(=O)[C@H]2CCCNN2C1=O [Example 4, cyclo-[D-Phenylalanyl-L-isoleucyl-D-hexahydro-3-pyridazinecarbonyl-L-hexahydro-6-oxo-3-pyridazinecarbonyl-N-methyl-D-phenylalanyl-L-prolyl]] (cyclo(I[X1][X10][dNMeF]P[dF])) |  | 13900 nM | 18900 nM | 6.66 | 
CC[C@H](C)[C@@H]1NC(=O)[C@@H](Cc2ccccc2)NC(=O)[C@@H]2CCCN2C(=O)[C@@H](Cc2ccccc2)N(C)C(=O)[C@@H]2CCC(SCC(=O)OC(C)(C)C)=NN2C(=O)[C@H]2CCC=NN2C1=O [Example 9, cyclo-[D-Phenylalanyl-L-isoleucyl-D-2,3,4,5-tetrahydro-3-pyridazinecarbonyl-6-[[2-(1,1-dimethylethoxy)-2-oxoethyl]thio]-L-2,3,4,5-tetrahydro-3-pyridazine-carbonyl-N-methyl-D-phenylalanyl-L-prolyl]] (cyclo(I[dPiz(1,6-dehydro)][X11][dNMeF]P[dF])) | 564 nM |  | 10000 nM |  | 5.00
CC[C@H](C)[C@@H]1NC(=O)[C@@H](Cc2ccccc2)NC(=O)[C@@H]2CCCN2C(=O)[C@@H](Cc2ccccc2)N(C)C(=O)[C@@H]2CCCN(C)N2C(=O)[C@H]2CCCN(C)N2C1=O [Example 6, cyclo-[D-Phenylalanyl-L-isoleucyl-D-hexahydro-1-methyl-3-pyridazinecarbonyl-L-hexahydro-1-methyl-3-pyridazinecarbonyl-N-methyl-D-phenylalanyl-L-prolyl]] (cyclo(I[X15][X16][dNMeF]P[dF])) |  |  |  | 5.20 | 

More lines, main results first:

IC50 (uterine OT receptors) | IC50 (AVP-V1 sites) | IC50 (AVP-V2 sites) | Structure (SMILES) | pIC50 (uterine OT receptors) | pIC50 (AVP-V1 sites)
3.6 nM | > 1000 nM | > 1000 nM | C=C1C=NN2C(=O)[C@H]3CCC=NN3C(=O)[C@H]([C@@H](C)CC)NC(=S)[C@@H](Cc3ccccc3)NC(=O)[C@@H]3CCCN3C(=O)[C@@H](Cc3ccccc3)N(C)C(=O)[C@@H]2C1 [Example 19, cyclo-[D-Thiophenylalanyl-L-isoleucyl-D-2,3,4,5-tetrahydro-3-pyridazinecarbonyl-5-methylene-L-2,3,4,5-tetrahydro-3-pyridazinecarbonyl-N-methyl-D-phenylalanyl-L-prolyl]] |  | 
290 nM | 10000 nM | > 10000 nM | CC[C@H](C)[C@@H]1NC(=O)[C@@H](Cc2ccccc2)NC(=O)[C@@H]2CCCN2C(=O)[C@@H](Cc2ccccc2)N(C)C(=O)[C@@H]2[C@@H](O)[C@@H](O)C=NN2C(=O)[C@H]2CCCNN2C1=O [Example 14, cyclo-[D-Phenylalanyl-L-isoleucyl-D-hexahydro-3-pyridazinecarbonyl-(3α,4β,5β)-4,5-dihydroxy-L-2,3,4,5-tetrahydro-3-pyridazinecarbonyl-N-methyl-D-phenylalanyl-L-prolyl]trifluoroacetate salt.] (cyclo(I[X1][X2][dNMeF]P[dF])) |  | 
200 nM | 3000 nM | 2400 nM | CCOC(=O)C(C(=O)OCC)C1C=NN2C(=O)[C@H]3CCC=NN3C(=O)[C@H]([C@@H](C)CC)NC(=O)[C@@H](Cc3ccccc3)NC(=O)[C@@H]3CCCN3C(=O)[C@@H](Cc3ccccc3)N(C)C(=O)[C@@H]2C1 (stereo partly drawn) [Example 17, cyclo-[D-Phenylalanyl-L-isoleucyl-D-2,3,4,5-tetrahydro-3-pyridazinecarbonyl-5-(2-ethoxy-1-(ethoxycarbonyl)-2-oxoethyl)-L-2,3,4,5,-tetrahydro-3-pyridazinecarbonyl-N-methyl-D-phenylalanyl-L-prolyl] (trifluoroacetate)] (cyclo(I[dPiz(1,6-dehydro)][X14][dNMeF]P[dF])) |  | 
600 nM | 8800 nM | 11000 nM | CC[C@H](C)[C@@H]1NC(=O)[C@@H](Cc2ccccc2)NC(=O)[C@@H]2CCCN2C(=O)[C@@H](Cc2ccccc2)N(C)C(=O)[C@@H]2CC(N3CCCC3)C=NN2C(=O)[C@H]2CCC=NN2C1=O (stereo partly drawn) [Example 15, cyclo-[D-Phenylalanyl-L-isoleucyl-D-2,3,4,5-tetrahydro-3-pyridazinecarbonyl-5-(1-pyrolidinyl)-L-2,3,4,5-tetrahydro-3-pyridazinecarbonyl-N-methyl-D-phenylalanyl-L-prolyl] trifluoroacetate] (cyclo(I[dPiz(1,6-dehydro)][X8][dNMeF]P[dF])) |  | 
710 nM | > 10000 nM | > 10000 nM | C=CCSC1=N[C@@H]([C@@H](C)CC)C(=O)N2N=CCC[C@@H]2C(=O)N2N=CCC[C@H]2C(=O)N(C)[C@H](Cc2ccccc2)C(=O)N2CCC[C@H]2C(=O)N[C@@H]1Cc1ccccc1 [Example 12, cyclo-[(R)-N-(2-amino-3-phenyl-1-(2-propenylthio)-propylidene)-L-isoleucyl-D-2,3,4,5-tetrahydro-3-pyridazinecarbonyl-L-2,3,4,5-tetrahydro-3-pyridazine-carbonyl-N-methyl-D-phenylalanyl-L-prolyl]] (cyclo(P[X12][dPiz(1,6-dehydro)][Piz(1,6-dehydro)][dNMeF])) |  | 
4.9 nM | 200 nM | 430 nM | CC[C@H](C)[C@@H]1NC(=S)[C@@H](Cc2ccccc2)NC(=S)[C@@H]2CCCN2C(=O)[C@@H](Cc2ccccc2)N(C)C(=O)[C@@H]2CCC=NN2C(=O)[C@H]2CCC=NN2C1=O [Example 11, cyclo-[D-Thiophenylalanyl-L-isoleucyl-D-2,3,4,5-tetrahydro-3-pyridazinecarbonyl-L-2,3,4,5-tetrahydro-3-pyridazinecarbonyl-N-methyl-D-phenylalanyl-L-thioprolyl]] |  | 
